In ChEMBL document CHEMBL4376816, “Discovery of the Oral Leukotriene C4 Synthase Inhibitor (1S,2S)-2-({5-[(5-Chloro-2,4-difluorophenyl)(2-fluoro-2-methylpropyl)amino]-3-methoxypyrazin-2-yl}carbonyl)cyclopropanecarboxylic Acid (AZD9898) as a New Treatment for Asthma” (J Med Chem, 2019):
Converted amounts (≈) assume the structure as drawn. The source made the active and inactive calls. No cut-off for these calls is given here.

Legend:
[1] = Oral bioavailability in Han Wistar rat at 1 mg/kg after 24 hrs; type: ADME, organism-based; details: in vivo
[2] = Apparent permeability across apical to basolateral side in human Caco2 cells; details: Caco-2
[3] = target: T1, Leukotriene C4 synthase (Homo sapiens) (UniProt Q16873); assay: Inhibition of LTC4S in asthmatic human whole blood assessed as inhibition of calcium ionophore A23187 stimulated cysteinyl leukotrienes production preincuabted for 30 mins followed by calcium ionophore stimulation and measured after 10 mins by LC-MS analysis; type: tissue-based
T1 sequence (whole entry): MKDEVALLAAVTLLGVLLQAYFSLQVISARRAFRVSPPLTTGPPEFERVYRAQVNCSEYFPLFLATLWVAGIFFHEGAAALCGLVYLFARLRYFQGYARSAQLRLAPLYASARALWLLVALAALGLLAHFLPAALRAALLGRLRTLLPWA

Blood [4] = assay: Preservation of LXA4 level in calcium ionophore A23187-stimulated asthmatic human whole blood preincubated for 30 mins followed by calcium ionophore A23187 stimulation and measured after 60 mins by LC-MS analysis; type: functional, tissue-based
[5] = Clearance in Beagle dog at 1 mg/kg, iv infusion or 2 mg/kg, po via gavage after 48 hrs; type: ADME, organism-based, Canis lupus familiaris; details: in vivo
[6] = target: T2, A-type potassium channel modulatory protein KCNIP2 (Homo sapiens) (UniProt Q9NS61); assay: Inhibition of human KvChIP2 expressed in CHOK1 cells at < 33 uM at -90 mV holding potential by Ionwork-based analysis; type: cell-based
T2 sequence (whole entry): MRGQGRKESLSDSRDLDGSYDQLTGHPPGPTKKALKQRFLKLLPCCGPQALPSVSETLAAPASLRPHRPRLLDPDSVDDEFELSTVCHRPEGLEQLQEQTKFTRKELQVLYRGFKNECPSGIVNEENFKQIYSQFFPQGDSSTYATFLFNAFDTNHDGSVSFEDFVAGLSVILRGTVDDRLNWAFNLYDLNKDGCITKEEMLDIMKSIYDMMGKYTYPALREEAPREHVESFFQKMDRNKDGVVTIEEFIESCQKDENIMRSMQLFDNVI

[7] = Toxicity in rat assessed as liver hypertrophy at 100 mg/kg, po after 7 days; type: organism-based; details: in vivo
Cytochrome P450 2C19 = Cytochrome P450 2C19 (Homo sapiens, UniProt P33261); assay: Inhibition of recombinant human CYP2C19 using coumarin based substrate by fluorescence assay; type: ADME
Rattus norvegicus = assay: In vivo inhibition of LTC4S in po dosed Sprague-Dawley rat assessed as unbound drug concentration required for inhibition of calcium ionophore A23187-induced cysteinyl leukotrienes production in BAL fluid by LC-MS/MS analysis; type: functional
[8] = AUC in po dosed rat at NOAEL measured after 7 days; type: ADME, organism-based; details: in vivo
[9] = target: T3, A-type voltage-gated potassium channel KCND3 (Homo sapiens, UniProt Q9UK17); assay: Inhibition of human Kv4.3 expressed in CHOK1 cells at < 33 uM at -80 mV holding potential by Ionwork-based analysis; type: cell-based
T3 sequence (Q9UK17 whole entry): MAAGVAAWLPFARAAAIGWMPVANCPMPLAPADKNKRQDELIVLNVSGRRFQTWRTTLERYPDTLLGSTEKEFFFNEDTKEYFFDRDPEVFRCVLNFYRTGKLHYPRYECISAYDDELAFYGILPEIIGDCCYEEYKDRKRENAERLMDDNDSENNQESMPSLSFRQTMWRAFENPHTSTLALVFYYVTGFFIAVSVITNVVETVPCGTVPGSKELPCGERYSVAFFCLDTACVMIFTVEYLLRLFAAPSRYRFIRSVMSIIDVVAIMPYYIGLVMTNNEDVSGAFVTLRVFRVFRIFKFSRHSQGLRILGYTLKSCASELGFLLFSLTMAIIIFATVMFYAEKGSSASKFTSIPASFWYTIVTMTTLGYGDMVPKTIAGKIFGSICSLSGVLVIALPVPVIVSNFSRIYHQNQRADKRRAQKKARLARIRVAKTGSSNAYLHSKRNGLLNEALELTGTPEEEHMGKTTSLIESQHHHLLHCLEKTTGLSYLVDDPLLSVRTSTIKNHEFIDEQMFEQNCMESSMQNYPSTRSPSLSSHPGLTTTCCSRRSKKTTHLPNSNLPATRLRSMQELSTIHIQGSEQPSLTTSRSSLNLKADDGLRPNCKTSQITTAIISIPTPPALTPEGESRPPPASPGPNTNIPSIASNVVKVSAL

Cytochrome P450 3A4 = Cytochrome P450 3A4 (Homo sapiens, UniProt P08684); assay: Inhibition of recombinant human CYP3A4 expressed in Escherichia coli using coumarin based substrate by fluorescence assay; type: ADME
[10] = target: Potassium voltage-gated channel subfamily E member 1 (Homo sapiens, UniProt P15382); assay: Inhibition of human minK expressed in CHOK1 cells at < 33 uM at -80 mV holding potential by Ionwork-based analysis; type: cell-based
[11] = Thermodynamic solubility of compound in pH 7.4 PBS at 1 mg/ml incubated for 24 hrs under shaking condition by LC-MS/MS analysis; type: physicochemical; details: read-out: Therm_solubility
[12] = target: Sodium channel protein type 5 subunit alpha (Homo sapiens, UniProt Q14524); assay: Inhibition of human Nav1.5 expressed in CHOK1 cells at < 33 uM at -90 mV holding potential by Ionwork-based analysis; type: cell-based
[13] = Fraction unbound in Beagle dog plasma by equilibrium dialysis based LC-MS analysis; type: ADME, cell-free, Canis lupus familiaris
[14] = target: Voltage-dependent L-type calcium channel subunit alpha-1C (Homo sapiens, UniProt Q13936); assay: Inhibition of human Cav1.2 expressed in CHOK1 cells at < 33 uM at -65 mV holding potential by Ionwork-based analysis; type: cell-based
[15] = Effective half life in Han Wistar rat at 0.5 mg/kg, iv or 1 mg/kg, po after 24 hrs; type: ADME, organism-based; details: in vivo, read-out: t1/2eff (converted)
[16] = target: T1, Leukotriene C4 synthase (Homo sapiens)
Blood [17] = assay: Preservation of LXA4 level in calcium ionophore A23187-stimulated healthy human whole blood preincubated for 30 mins followed by calcium ionophore A23187 stimulation and measured after 60 mins by LC-MS analysis; type: functional, tissue-based
Cytochrome P450 2C9 = Cytochrome P450 2C9 (Homo sapiens, UniProt P11712); assay: Inhibition of recombinant human CYP2C9 expressed in Escherichia coli using coumarin based substrate by fluorescence assay; type: ADME
[18] = Oral bioavailability in Beagle dog at 2 mg/kg via gavage after 48 hrs; type: ADME, organism-based, Canis lupus familiaris; details: in vivo
[19] = Volume of distribution at steady state in Han Wistar rat at 0.5 mg/kg, iv or 1 mg/kg, po after 24 hrs; type: ADME, organism-based; details: in vivo, read-out: Vdss
[20] = Octanol/Sodium phosphate buffer partition coefficient, log D of compound at pH 7.4 at 1 mg incubated for overnight under shaking condition by LC-MS/MS analysis; type: physicochemical
Cytochrome P450 2D6 = Cytochrome P450 2D6 (Homo sapiens, UniProt P10635); assay: Inhibition of recombinant human CYP2D6 using coumarin based substrate by fluorescence assay; type: ADME
[21] = Effective half life in cynomolgus monkey at 1 mg/kg, iv or 2 mg/kg, po after 48 hrs; type: ADME, organism-based, Macaca fascicularis; details: in vivo, read-out: t1/2eff (converted)

Voltage-dependent L-type calcium channel subunit alpha-1C, sequence (Q13936 whole entry): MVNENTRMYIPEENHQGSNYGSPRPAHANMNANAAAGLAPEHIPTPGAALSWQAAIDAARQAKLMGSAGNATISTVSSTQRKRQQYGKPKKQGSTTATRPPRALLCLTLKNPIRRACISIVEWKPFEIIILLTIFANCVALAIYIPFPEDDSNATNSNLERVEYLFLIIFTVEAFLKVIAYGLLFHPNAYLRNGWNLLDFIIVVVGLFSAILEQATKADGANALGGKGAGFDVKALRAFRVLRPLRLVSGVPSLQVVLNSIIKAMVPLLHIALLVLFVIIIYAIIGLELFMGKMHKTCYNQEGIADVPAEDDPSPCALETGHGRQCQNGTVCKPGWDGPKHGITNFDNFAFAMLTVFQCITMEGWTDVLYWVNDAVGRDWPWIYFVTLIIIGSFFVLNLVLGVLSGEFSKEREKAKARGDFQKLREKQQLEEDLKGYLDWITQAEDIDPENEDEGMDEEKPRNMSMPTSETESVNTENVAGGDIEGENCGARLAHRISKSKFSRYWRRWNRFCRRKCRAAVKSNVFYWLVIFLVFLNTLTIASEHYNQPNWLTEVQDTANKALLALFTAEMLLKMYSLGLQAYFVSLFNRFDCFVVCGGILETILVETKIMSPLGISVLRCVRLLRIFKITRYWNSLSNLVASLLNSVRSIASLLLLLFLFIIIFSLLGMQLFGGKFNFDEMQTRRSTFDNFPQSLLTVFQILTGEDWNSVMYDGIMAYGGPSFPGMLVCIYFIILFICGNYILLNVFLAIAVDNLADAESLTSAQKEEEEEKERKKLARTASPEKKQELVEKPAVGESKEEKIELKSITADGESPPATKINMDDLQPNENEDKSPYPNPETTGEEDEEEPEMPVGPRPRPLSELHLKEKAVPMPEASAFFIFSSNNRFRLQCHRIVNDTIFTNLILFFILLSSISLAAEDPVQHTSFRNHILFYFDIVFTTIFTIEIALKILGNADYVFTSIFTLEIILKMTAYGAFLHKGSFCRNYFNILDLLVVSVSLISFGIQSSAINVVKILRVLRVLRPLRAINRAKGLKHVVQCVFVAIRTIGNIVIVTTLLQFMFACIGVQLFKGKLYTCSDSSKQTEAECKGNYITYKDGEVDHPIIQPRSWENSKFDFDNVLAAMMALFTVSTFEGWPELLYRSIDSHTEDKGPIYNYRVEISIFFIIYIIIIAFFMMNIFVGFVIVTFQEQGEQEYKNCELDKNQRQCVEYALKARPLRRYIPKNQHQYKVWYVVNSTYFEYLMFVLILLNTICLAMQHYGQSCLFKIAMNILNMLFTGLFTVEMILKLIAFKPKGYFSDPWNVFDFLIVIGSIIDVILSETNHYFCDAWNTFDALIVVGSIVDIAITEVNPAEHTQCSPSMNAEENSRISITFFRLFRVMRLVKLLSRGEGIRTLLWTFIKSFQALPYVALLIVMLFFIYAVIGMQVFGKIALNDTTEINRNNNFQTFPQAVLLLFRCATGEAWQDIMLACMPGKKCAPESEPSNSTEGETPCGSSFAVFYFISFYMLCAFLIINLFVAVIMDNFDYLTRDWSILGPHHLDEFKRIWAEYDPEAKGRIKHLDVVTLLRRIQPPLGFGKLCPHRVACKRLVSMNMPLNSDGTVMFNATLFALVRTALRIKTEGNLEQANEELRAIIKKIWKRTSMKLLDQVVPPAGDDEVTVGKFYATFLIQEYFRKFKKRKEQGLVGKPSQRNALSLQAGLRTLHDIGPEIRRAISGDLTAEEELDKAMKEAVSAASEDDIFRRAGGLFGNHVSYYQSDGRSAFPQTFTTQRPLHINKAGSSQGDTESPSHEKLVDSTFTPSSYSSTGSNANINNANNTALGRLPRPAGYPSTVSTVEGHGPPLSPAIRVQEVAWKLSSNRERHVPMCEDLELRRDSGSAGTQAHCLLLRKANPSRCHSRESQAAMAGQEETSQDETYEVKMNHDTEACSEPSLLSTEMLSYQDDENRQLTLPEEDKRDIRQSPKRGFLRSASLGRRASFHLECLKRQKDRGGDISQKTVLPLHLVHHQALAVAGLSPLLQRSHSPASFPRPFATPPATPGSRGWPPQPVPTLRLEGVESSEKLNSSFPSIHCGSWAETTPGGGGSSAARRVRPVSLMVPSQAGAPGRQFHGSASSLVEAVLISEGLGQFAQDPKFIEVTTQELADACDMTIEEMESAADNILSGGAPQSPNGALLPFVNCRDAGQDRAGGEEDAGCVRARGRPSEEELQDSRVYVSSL
Sodium channel protein type 5 subunit alpha, sequence (Q14524 whole entry): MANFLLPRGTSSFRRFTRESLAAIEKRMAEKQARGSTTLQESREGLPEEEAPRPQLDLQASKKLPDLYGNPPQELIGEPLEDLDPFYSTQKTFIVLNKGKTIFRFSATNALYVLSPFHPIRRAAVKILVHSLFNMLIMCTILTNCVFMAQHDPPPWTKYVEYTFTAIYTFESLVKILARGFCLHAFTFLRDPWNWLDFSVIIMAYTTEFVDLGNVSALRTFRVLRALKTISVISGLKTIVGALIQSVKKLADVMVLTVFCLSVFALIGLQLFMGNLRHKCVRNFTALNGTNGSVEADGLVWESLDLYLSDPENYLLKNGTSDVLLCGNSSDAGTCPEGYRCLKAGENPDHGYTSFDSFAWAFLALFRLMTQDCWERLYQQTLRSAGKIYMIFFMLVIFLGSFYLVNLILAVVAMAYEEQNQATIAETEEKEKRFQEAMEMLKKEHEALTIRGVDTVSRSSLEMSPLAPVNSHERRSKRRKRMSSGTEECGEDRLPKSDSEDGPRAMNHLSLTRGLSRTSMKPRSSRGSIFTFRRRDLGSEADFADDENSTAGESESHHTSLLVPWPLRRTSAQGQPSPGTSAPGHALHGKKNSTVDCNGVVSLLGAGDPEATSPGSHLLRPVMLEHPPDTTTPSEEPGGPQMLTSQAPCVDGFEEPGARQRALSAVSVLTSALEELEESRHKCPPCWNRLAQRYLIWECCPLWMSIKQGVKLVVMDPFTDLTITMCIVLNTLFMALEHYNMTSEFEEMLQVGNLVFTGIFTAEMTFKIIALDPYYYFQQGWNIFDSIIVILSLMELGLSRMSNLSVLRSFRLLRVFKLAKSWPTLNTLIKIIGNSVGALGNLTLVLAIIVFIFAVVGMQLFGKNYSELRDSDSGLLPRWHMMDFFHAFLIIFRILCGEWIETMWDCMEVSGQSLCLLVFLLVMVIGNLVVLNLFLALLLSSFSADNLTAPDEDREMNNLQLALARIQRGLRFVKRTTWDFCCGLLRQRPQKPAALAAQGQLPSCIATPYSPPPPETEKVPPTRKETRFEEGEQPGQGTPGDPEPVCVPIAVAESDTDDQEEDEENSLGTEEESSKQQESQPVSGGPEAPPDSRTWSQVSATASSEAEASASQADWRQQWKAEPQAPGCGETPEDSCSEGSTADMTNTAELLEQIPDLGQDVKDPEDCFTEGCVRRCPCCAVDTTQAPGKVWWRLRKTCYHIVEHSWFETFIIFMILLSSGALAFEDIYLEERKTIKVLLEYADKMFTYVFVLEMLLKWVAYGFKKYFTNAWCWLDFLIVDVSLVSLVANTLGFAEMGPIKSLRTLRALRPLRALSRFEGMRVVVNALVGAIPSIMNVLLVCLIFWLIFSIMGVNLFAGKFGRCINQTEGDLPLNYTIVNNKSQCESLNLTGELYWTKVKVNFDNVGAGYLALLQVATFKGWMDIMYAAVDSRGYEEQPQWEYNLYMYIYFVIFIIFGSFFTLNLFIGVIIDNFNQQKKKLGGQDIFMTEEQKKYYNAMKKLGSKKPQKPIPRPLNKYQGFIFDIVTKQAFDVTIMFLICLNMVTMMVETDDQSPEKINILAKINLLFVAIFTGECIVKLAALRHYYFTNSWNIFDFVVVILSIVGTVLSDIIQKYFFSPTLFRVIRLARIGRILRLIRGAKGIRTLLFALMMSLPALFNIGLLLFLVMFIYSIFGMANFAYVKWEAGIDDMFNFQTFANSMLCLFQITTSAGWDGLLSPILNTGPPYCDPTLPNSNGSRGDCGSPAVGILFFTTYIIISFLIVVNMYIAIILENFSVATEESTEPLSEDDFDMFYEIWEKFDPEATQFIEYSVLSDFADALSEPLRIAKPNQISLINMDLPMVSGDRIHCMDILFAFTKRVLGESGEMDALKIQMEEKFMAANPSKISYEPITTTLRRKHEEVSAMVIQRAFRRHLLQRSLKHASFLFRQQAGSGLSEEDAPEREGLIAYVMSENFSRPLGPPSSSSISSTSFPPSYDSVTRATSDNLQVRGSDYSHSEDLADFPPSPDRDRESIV
Cytochrome P450 2C19, sequence (P33261 whole entry): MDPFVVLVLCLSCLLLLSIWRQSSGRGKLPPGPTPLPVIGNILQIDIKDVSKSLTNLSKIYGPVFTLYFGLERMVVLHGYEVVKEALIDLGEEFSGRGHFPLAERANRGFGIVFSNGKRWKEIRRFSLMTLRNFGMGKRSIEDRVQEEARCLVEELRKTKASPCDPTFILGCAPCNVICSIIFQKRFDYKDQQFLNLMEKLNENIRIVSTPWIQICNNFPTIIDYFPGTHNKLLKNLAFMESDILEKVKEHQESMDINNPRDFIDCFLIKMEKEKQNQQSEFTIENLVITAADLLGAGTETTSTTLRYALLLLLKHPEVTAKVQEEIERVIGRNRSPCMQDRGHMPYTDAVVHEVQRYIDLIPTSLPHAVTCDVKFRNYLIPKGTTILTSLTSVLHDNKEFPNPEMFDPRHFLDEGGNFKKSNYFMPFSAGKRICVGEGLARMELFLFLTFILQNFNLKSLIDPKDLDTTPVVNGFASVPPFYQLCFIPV

SMILES: COc1nc(N(CC(C)(C)F)c2cc(Cl)c(F)cc2F)cnc1C(=O)[C@H]1C[C@@H]1C(=O)O [AZD-9898]
- bioavailability [1]: 100%
- Papp A→B [2]: 61 ×10⁻⁶ cm/s
- inhibition [3]: Active
- Activity (Blood [4]): Dose-dependent effect
- clearance [5]: 1.8 mL/min/kg
- inhibition [6]: inactive
- Activity [7]: Non-Toxic
- IC50 (Cytochrome P450 2C19): > 30 µM
- fEC50 (Rattus norvegicus): 34 nM
- AUC [8]: 4500 µM·h
- inhibition (INH) [9]: Not Active
- IC50 (Cytochrome P450 3A4): > 30 µM
- inhibition (INH) [10]: Not Active
- solubility thermodynamic at 24 h [11]: 2080 µM (≈ 952 µg/mL)
- inhibition (INH) [12]: Not Active
- fraction unbound [13]: 0.059
- inhibition (INH) [14]: Not Active
- half-life [15]: 1560 min
- fIC50 [16]: 6.2 nM
- Activity (Blood [17]): Dose-dependent effect
- IC50 (Cytochrome P450 2C9): > 30 µM
- bioavailability [18]: 100%
- Vd [19]: 5.3 L/kg
- logD [20]: 1.1
- IC50 (Cytochrome P450 2D6): > 30 µM
- half-life [21]: 720 min
